US6531148B1, “Therapeutic agents” (Takara Shuzo Co., Ltd., priority 1998, dated 2003)
Values after ≈ are worked out from the molar mass of the structure shown.

Columns and labels:
HL-60 cells = experiment: Antiproliferation activity against tumor cells (MTT, absorbance at 590 nm); format: cell-based
Method: The Samples 1 to 3 were separately sterilized by filtration and appropriately diluted with sterile water. 10 μl of each dilution was placed in a well of a 96-well microtiter plate. 90 μl of RPMI 1640 medium (Nissui) containing 10% fetal bovine serum (Gibco), which had been treated at 56° C. for 30 minutes, and 5,000 HL-60 cells (ATCC CCL-240) was added thereto. The plate was incubated at 37° C. for 48 hours in the presence of 5% CO2. The cell morphology was examined under an optical microscope. 10 μl of 5 mg/ml 3-(4,5-dimethylthiazol-2-yl)-2,5-diphenyltetrazolium bromide (Sigma) solution in phosphate buffered saline was further added thereto and the incubation was continued for additional 4 hours. 100 μl of 2-propanol containing 0.04 N HCl was added to the well and the mixture was thoroughly stirred. The absorbance at 590 nm was measured to determine the cell growth level.

α-glucosidase from yeast = experiment: α-Glucosidase inhibition test (yeast enzyme); format: biochemical; settings: for Remaining activity: activity without test sample = 100%; for Absorbance (OD 410 nm): without DGE 0.444
Method: (1) The activity of inhibiting α-glucosidase of DGE was measured by reacting p-nitrophenyl-α-D-glucopyranoside, a chromogenic substrate for α-glucosidase, with α-glucosidase from yeast and calorimetrically quatifying 4-nitrophnol released by hydrolysis. Briefly, 10 μl of α-glucosidase solution [40 mU/ml, derived from S. cerevisiae, Sigma, dissolved in 10 mM phosphate buffer (pH 7.2 at 37° C.)] and 10 μl of a solution containing a test sample dissolved in 10 mM phosphate buffer (pH 7.2 at 37° C.) were mixed. 80 μl of a 1.5 mg/ml substrate solution [Sigma, dissolved in 10 mM phosphate buffer (pH 7.2 at 37° C.) was added thereto to initiate the reaction. After reacting at 37° C. for 40 minutes, the absorbance at 410 nm was measured (Shimadzu uv2200). The remaining activity therein was calculated defining the activity without the test sample as 100%.

[1] = tested on: lipid peroxide radical production; experiment: Lipid peroxide radical production inhibition test; format: cell-based, Staphylococcus aureus 3A; settings: for Growth of bacteria: 37° C., 30 minutes
Streptococcus mutans GS5 = experiment: Antimicrobial activity test; format: cell-based; settings: Bacterium 5, 24 hours
Method: (§1) The antimicrobial activities of DGE against Escherichia coli W3110 (Bacterium 1), Salmonella typhimurium LT2 (Bacterium 2), Bacillus subtilis IFO3021 (Bacterium 3), Pseudomonas aeruginosa IFO3080 (Bacterium 4) and Streptococcus mutans GS5 (Bacterium 5) were examined as follows.
(§2) The Bacteria 1 to 4 were cultured overnight in L-broth. The cultures were diluted to a concentration of about 2×10^5 cells/180 μl with Sensitive Bouillon medium (Nissui) base on the turbidity. The Bacterium 5 was cultured overnight in Brain Heart Infusion medium. The culture was diluted to a concentration of about 2×10^5 cells/180 μl with Brain Heart Infusion medium based on the turbidity. 180 μl of each bacterial dilution was placed in each well of a 96-well microtiter plate. On the other hand, the respective bacterial dilutions were further diluted and spread onto plates of L-broth or Brain Heart Infusion medium. The plates were incubated at 37° C. overnight. The resulting colonies were counted to determine the stating viable cell numbers.
(§3) A 14.4 mg/ml DGE solution was diluted every 2-folds to prepare serial dilutions. 20 μl each of the dilutions was placed in the well in which the bacterial dilution had been placed. The cells were cultured at 37° C. for 24 hours without shaking. After cultivation, the turbidity of each culture was measured.
(§4) Furthermore, the culture from the well for which the growth of bacterial cells was not observed was spread onto plates. After the plates were incubated at 37° C. overnight, the colony number was counted to determine the viable cell number. […] The minimal growth-inhibitory concentrations and the minimal bacteriocidal concentrations of DGE for the Bacteria 1 to 5 were determined as shown in Table 2.

[2] = tested on: Bacillus subtilis IFO3021; experiment: Antimicrobial activity test; format: cell-based; settings: Bacterium 3, 24 hours
Method: as §1, §2, §3, §4

[3] = tested on: Pseudomonas aeruginosa IFO3080; experiment: Antimicrobial activity test; format: cell-based; settings: Bacterium 4, 24 hours
Method: as §1, §2, §3, §4

[4] = tested on: Salmonella typhimurium LT2; experiment: Antimicrobial activity test; format: cell-based; settings: Bacterium 2, 24 hours
Method: as §1, §2, §3, §4

Escherichia coli W3110 = experiment: Antimicrobial activity test; format: cell-based; settings: Bacterium 1, 24 hours
Method: as §1, §2, §3, §4

spleen lymphocytes = experiment: Lymphocyte activation inhibition test; format: cell-based, mouse; settings: 3H-thymidine uptake
Excerpt: A ddY mouse (female, 7 weeks old, weighing about 25 g) was purchased from Nippon SLC and pre-bred for 1 week before using in experiments. A spleen was taken out from the mouse, finely minced and suspended in RPMI-1640 medium containing 10% fetal bovine serum (HyClone) to obtain a single cell suspension. Adhesive cells adhered to a plastic Petri dish were removed and non-adhesive cells were used as spleen lymphocytes. The spleen lymphocytes were suspended in RPMI 1640 medium containing 10% fetal bovine serum at a concentration of 2×10^6/ml. 200 μl of the suspension was seeded into each well of a 96-well microtiter plate. DGE at a varying concentration was added to each well other than the control well. Furthermore, 5 μg of Con A (Nacalai Tesque) was added to each well. The plate was incubated at 37° C. for two days in the presence of 5% CO2. 37 kBq of ^3H-thymidine (Daiichi Pure Chemicals) was added to each well to pulse-label the cells on the day before the completion of the cultivation. After cultivation, the cells were harvested on a glass filter to measure the radioactivity.

**Q.** Which “antiproliferation activity against tumor cells” value (HL-60 cells; 48 hours, absorbance at 590 nm) does the source give for “5-L-glutathion-S-yl-2-hydroxy-3,7-dioxabicyclo[2.2.2]octan-1-ol [DGE-GSH]” here?
**A.** The value was “inhibition of cell growth”.

**Q.** What about the “GI50, the concentration that results in 50% growth inhibition” value (HL-60 cells; half absorbance at 590 nm compared with water control) of the same compound?
**A.** Its value is “about 48.7 μg/ml”.

**Q.** What about the “formation of apoptotic bodies” value (HL-60 cells; optical microscope) of the same compound?
**A.** The value was “apoptotic bodies were observed”.

**Q.** What does the source list for O=C1C=CC(CO)OC1O [DGE, L-glycero-1,5-epoxy-1αβ,6-dihydroxy-cis-hex-3-en-2-one]?
**A.** Remaining activity (α-glucosidase from yeast; DGE added 5 μM): 98%; Absorbance (OD 410 nm) (α-glucosidase from yeast; DGE added 5 μM): 0.433; Remaining activity (α-glucosidase from yeast; DGE added 50 μM): 90%; Absorbance (OD 410 nm) (α-glucosidase from yeast; DGE added 50 μM): 0.401; Remaining activity (α-glucosidase from yeast; DGE added 500 μM): 50%; Absorbance (OD 410 nm) (α-glucosidase from yeast; DGE added 500 μM): 0.221; Remaining activity (α-glucosidase from yeast; DGE added 1000 μM): 26%; Absorbance (OD 410 nm) (α-glucosidase from yeast; DGE added 1000 μM): 0.114; Remaining activity (α-glucosidase from yeast; DGE added 5000 μM): 19%; Absorbance (OD 410 nm) (α-glucosidase from yeast; DGE added 5000 μM): 0.083; IC50 (α-glucosidase from yeast; substrate p-nitrophenyl-α-D-glucopyranoside, read-out: concentration of DGE that inhibits α-glucosidase activity by 50% (IC50)): 500 µM; activity of inhibiting lipid peroxide radical production [1]: exhibited an activity of inhibiting lipid peroxide radical production; Growth of bacteria ([1]; DGE 1 mM in the reaction mixture with tert-butyl hydroperoxide): −; Growth of bacteria ([1]; DGE 10 mN in the reaction mixture with tert-butyl hydroperoxide): +; Minimal bacteriocidal concentration (Streptococcus mutans GS5): 180 µg/mL; MIC (Streptococcus mutans GS5; Streptococcus mutans, GS5, read-out: Minimal growth-inhibitory concentration): 90 µg/mL (≈ 624 µM); MIC ([2]; Bacillus subtilis, IFO3021, read-out: Minimal growth-inhibitory concentration): 360 µg/mL (≈ 2500 µM); Minimal bacteriocidal concentration [2]: 720 µg/mL; Minimal bacteriocidal concentration [3]: 720 µg/mL; MIC ([3]; Pseudomonas aeruginosa, IFO3080, read-out: Minimal growth-inhibitory concentration): 360 µg/mL (≈ 2500 µM); Minimal bacteriocidal concentration [4]: 720 µg/mL; MIC ([4]; Salmonella enterica, TYPHIMURIUM, read-out: Minimal growth-inhibitory concentration): 360 µg/mL (≈ 2500 µM); Minimal bacteriocidal concentration (Escherichia coli W3110): 720 µg/mL; MIC (Escherichia coli W3110; Escherichia coli, W3110, read-out: Minimal growth-inhibitory concentration): 360 µg/mL (≈ 2500 µM); inhibitory activity against lymphocyte proliferation activated by stimulation with mitogen (spleen lymphocytes; Con A): in a dose-dependent manner; concentration that almost completely inhibits the proliferation (spleen lymphocytes; Con A-stimulated spleen lymphocytes): 0.3 µg/mL
